Measurements taken from US20260232682A1, “GSPT1 DEGRADER COMPOUNDS” (Captor Therapeutics S.A., priority 2023, published 2026).

Assays:
[1] = target: T1, [IKZF2 ZF2]-[compound]-[CRBN/DDB1] ternary complex (Homo sapiens, UniProt Q96SW2+Q9UKS7); test: AlphaLISA assay for off-target recruitment detection, IKZF2 ZF2; format: binding; conditions: 1 μM compound; normalized to Helios modulator; read-out: Normalized ternary complex response, IKZF2 ZF2
T1 construct: IKZF2 ZF2
Method: (§1) The ability of the molecular glue compounds of the invention to mediate the proximity of CRBN with its known neo-substrates (shown in Table 3) was assessed using AlphaLISA to detect the formation of a [neo-substrate]-[compound of formula (I)]-[CRBN/DDB1] ternary complex.
(§2) Two types of protein solution were prepared: • neo-substrate, 40 μg/ml AlphaScreen Donor Beads (Table 3) in PBS (10 mM phosphate buffer, 137 mM NaCL, 2.7 mM KCl, pH 7.4) buffer supplemented with Tween-20 (Table 3) and 1 mM DTT, • 200 nM 6×His-CRBN/DDB1, 40 μg/ml AlphaLISA Anti-6×His Acceptor beads in PBS buffer with Tween-20 (Table 3) and 1 mM DTT.
(§3) The prepared solutions were incubated at room temperature for 30 min and then the solution containing the donor beads was mixed with the solution containing the acceptor beads.
(§4) The tested compounds were dispensed onto a white 384-well AlphaPlate 384 SW. DMSO was backfilled to all wells, resulting in a final DMSO content of 2%. Wells containing only DMSO served as background. Next, 10 μl of solution with donor and acceptor beads was added to the wells.
(§5) The plate was sealed with transparent film and shaken using a VibroTurbulator for 60 sec at room temperature, level 3. The plate was then spun down shortly (10 sec, 1000 rcf, room temperature) and incubated at 25° C. for 30 min.
(§6) The read-out was performed with PerkinElmer Enspire Multimode Plate Reader (method for AlphaLISA 384-well low volume, Filterset: λexc=680 nm, λem=615 nm).
(§7) The results were analyzed as follows: • 1) an average of luminescence for background signal was calculated and used as a negative control; • 2) an average of the maximum measured luminescence for reference compound (Table 3) was calculated and used as an internal positive control; • 3) raw luminescence values were normalized against positive and negative controls; • 4) Normalized responses to reference molecular glue were determined.

[2] = target: T2, [SALL4 ZF2]-[compound]-[CRBN/DDB1] ternary complex (Homo sapiens, UniProt Q96SW2+Q9UJQ4); test: AlphaLISA assay for off-target recruitment detection, SALL4 ZF2; format: binding; conditions: 1 μM compound; normalized to Lenalidomide; read-out: Normalized ternary complex response, SALL4 ZF2
T2 construct: SALL4 ZF2
T2 sequence (Q9UJQ4 410-432 limits assumed): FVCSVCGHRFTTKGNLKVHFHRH
T2 sequence (Q96SW2 whole entry): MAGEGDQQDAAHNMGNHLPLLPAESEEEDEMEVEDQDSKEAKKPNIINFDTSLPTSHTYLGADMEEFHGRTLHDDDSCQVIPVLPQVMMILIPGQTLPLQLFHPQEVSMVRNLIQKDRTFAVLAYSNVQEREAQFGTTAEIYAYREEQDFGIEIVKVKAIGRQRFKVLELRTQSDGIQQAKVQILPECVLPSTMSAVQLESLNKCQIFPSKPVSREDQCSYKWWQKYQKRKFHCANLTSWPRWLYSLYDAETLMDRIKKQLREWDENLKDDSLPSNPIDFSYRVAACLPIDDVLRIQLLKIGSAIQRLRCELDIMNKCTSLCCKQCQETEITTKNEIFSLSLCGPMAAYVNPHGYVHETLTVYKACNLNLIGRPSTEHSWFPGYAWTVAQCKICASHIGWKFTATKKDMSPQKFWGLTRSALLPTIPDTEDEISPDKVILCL
T2 sequence (Q16531 whole entry partner): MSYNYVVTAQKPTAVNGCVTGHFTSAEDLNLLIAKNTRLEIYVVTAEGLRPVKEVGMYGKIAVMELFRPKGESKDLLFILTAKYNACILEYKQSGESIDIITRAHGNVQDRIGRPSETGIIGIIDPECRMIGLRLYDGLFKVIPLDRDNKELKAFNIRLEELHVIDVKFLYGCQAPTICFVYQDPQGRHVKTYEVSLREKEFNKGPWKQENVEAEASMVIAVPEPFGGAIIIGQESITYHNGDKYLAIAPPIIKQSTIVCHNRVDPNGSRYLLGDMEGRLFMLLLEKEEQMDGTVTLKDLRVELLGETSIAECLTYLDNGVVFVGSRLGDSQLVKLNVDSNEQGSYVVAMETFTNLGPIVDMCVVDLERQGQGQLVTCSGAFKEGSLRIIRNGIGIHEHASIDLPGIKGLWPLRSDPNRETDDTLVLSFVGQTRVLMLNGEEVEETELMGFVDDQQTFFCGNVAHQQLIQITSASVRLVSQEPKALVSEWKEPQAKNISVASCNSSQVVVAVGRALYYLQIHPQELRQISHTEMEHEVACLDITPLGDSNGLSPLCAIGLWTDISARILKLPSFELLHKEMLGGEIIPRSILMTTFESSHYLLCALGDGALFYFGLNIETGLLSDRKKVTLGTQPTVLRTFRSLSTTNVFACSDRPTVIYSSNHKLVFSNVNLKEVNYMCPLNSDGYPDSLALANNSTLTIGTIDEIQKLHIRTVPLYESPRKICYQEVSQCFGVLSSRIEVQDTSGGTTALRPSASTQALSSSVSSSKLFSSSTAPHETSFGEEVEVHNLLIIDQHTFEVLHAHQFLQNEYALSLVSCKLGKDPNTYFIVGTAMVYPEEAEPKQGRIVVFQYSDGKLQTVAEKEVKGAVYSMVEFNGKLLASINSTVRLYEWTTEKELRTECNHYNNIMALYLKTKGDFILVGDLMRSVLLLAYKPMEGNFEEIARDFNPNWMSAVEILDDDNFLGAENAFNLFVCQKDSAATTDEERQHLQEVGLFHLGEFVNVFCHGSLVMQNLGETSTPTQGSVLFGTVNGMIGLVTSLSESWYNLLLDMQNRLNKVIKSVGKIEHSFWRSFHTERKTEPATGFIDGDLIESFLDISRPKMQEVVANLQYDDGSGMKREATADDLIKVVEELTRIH
Method: as §1, §2, §3, §4, §5, §6, §7

[3] = target: T3, [GSPT1]-[compound of formula (I)]-[CRBN/DDB1] complex (Homo sapiens, UniProt P15170+Q96SW2); test: HTRF ternary complex assay (GSPT1); format: binding; conditions: read-out: HTRF ternary complex Average pEC50 by molecule (converted)
T3 sequence (P15170 whole entry): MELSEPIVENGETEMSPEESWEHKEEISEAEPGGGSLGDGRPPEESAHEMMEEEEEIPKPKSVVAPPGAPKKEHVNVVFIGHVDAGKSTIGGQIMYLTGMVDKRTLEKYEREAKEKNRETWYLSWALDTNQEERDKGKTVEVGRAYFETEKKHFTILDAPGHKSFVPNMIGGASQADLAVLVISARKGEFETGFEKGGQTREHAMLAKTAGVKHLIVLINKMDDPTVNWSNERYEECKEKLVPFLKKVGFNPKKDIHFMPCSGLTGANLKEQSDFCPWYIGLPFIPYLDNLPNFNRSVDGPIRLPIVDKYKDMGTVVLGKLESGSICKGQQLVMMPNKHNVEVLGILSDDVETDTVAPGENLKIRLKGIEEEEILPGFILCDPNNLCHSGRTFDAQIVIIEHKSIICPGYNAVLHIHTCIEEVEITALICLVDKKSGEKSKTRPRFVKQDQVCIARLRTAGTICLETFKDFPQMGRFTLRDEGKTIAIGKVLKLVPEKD
T3 sequence (Q96SW2 whole entry): as the sequence (Q96SW2 whole entry) above
T3 sequence (Q16531 whole entry partner): as the sequence (Q16531 whole entry partner) above
Method: The effect of the molecular glue compounds of the invention on the formation of a ternary complex composed of [GSPT1]-[compound of formula (I)]-[CRBN/DDB1] was investigated.
Mix solution of proteins and reagents was prepared: • 48 nM GSPT1, 52.8 nM 6×His-CRBN/DDB1, 3 nM of Streptavidin-Eu cryptate ([…]) and 6.67 nM of Anti-6×his-d2 ([…]) was prepared in PPI Europium detection buffer (purchased from Cisbio) with 1 mM DTT.
The tested compounds in dose-response were dispensed onto a white 384-well low volume plate (Greiner, 784075). DMSO was backfilled to all wells, resulting in a final DMSO content of 0.5%. Wells containing only DMSO served as background.
The plate was sealed with transparent film and shaken using a VibroTurbulator for 60 sec at level 3.
The plate was then spun down shortly (10 sec, 1000 rcf) and incubated at 25° C. for 180 min.
The read-out was performed with plate reader (Pherastar, BMG Labtech) in time resolved fluorescence mode. Filter settings: TR 337 665 620.
The results were analyzed as follows: • 1) an average of fluorescence for background signal was calculated and used as a negative control; • 2) raw fluorescence values for tested compounds were normalized against negative controls; • 3) saturation curve was fitted to specific binding with Hill slope model; • 4) EC50 and pEC50 values were determined.

[4] = target: T3, [GSPT1]-[compound of formula (I)]-[CRBN/DDB1] complex; test: AlphaLISA ternary complex formation assay (GSPT1); format: binding; conditions: 0.5 h; 1 μM compound; normalized to reference compound CC-885; read-out: Normalized AlphaLISA ternary complex average signal at 1 μM molecule
Method: The effect of the molecular glue compounds of the invention on the formation of a ternary complex composed of [GSPT1]-[compound of formula (I)]-[CRBN/DDB1] was investigated with two methods: AlphaLISA dose response assay or HTRF ternary complex assay.
Two types of protein solution were prepared: • 200 nM biotinylated GSPT1 (Table 3), 40 μg/ml AlphaScreen Streptavidin-coated Donor Beads in HBS (10 mM HEPES, 150 mM NaCL, pH 7.4) buffer with 0.1% Tween-20 and 1 mM DTT, • 200 nM 6×His-CRBN/DDB1, 40 μg/ml AlphaLISA Anti-6×His Acceptor beads in HBS buffer with 0.1% Tween-20 and 1 mM DTT.
as §3, §4, §5, §6
as §7, with “2)” for “2) an”, “(structure shown in Table 3 below)” for “(Table 3)”, “positive control” for “reference molecular glue”

[5] = target: T4, [IKZF1 ZF2]-[compound]-[CRBN/DDB1] ternary complex (Homo sapiens, UniProt Q13422+Q96SW2); test: AlphaLISA assay for off-target recruitment detection, IKZF1 ZF2; format: binding; conditions: 1 μM compound; normalized to Lenalidomide; read-out: Normalized ternary complex response, IKZF1 ZF2
T4 construct: IKZF1 ZF2
T4 sequence (Q13422 145-167 limits assumed): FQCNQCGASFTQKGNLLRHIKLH
T4 sequence (Q96SW2 whole entry): as the sequence (Q96SW2 whole entry) above
T4 sequence (Q16531 whole entry partner): as the sequence (Q16531 whole entry partner) above
Method: as §1, §2, §3, §4, §5, §6, §7

[6] = target: [CK1α]-[compound]-[CRBN/DDB1] ternary complex (Homo sapiens, UniProt P48729+Q96SW2); test: AlphaLISA assay for off-target recruitment detection, CK1α; format: binding; conditions: 1 μM compound; normalized to FPFT-2216; read-out: Normalized ternary complex response, CK1α
Sequence of [CK1α]-[compound]-[CRBN/DDB1] ternary complex (P48729 whole entry): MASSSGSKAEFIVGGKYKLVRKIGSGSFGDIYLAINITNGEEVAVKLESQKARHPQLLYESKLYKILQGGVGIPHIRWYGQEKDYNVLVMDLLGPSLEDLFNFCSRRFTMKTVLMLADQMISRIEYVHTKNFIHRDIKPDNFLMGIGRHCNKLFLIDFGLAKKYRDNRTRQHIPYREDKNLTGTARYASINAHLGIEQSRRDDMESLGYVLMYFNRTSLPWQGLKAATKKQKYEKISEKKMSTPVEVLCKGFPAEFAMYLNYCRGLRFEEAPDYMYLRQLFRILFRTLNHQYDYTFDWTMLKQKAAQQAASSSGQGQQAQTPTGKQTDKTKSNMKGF
Sequence of [CK1α]-[compound]-[CRBN/DDB1] ternary complex (Q96SW2 whole entry): as the sequence (Q96SW2 whole entry) above
Sequence of [CK1α]-[compound]-[CRBN/DDB1] ternary complex (Q16531 whole entry partner): as the sequence (Q16531 whole entry partner) above
Method: as §1, §2, §3, §4, §5, §6, §7

[7] = target: CRBN/DDB1 protein complex (Homo sapiens, UniProt Q96SW2); test: CRBN displacement TR-FRET assay; conditions: Thalidomide-Red tracer, 6×His-CRBN/DDB1; read-out: CRBN binding Ki
Sequence of CRBN/DDB1 protein complex (Q96SW2 whole entry, species assumed): as the sequence (Q96SW2 whole entry) above
Sequence of CRBN/DDB1 protein complex (Q16531 whole entry partner, species assumed): as the sequence (Q16531 whole entry partner) above
Method: CRBN/DDB1 protein complex was mixed with Thalidomide-Red and a compound to be tested (the “test compound”). The test solution contained PPI Europium detection buffer, 1 mM DTT, 6.8 nM Thalidomide-Red (the tracer), 5 nM 6×His-CRBN/DDB1 protein, 0.5 nM Anti-6× His-Eu cryptate, 1% DMSO. The test solution was added to a 384-well assay plate.
The plate was spun-down (1 min, 1000 rpm, 22° C.) and then shaken using a VibroTurbulator for 30 sec at room temperature (20-25° C.), with the frequency set to level 10. The assay plate with protein and the tracer was incubated for 180 min at room temperature (20-25° C.) prior to read-out with a plate reader. The read-out was performed with plate reader (Pherastar, BMG Labtech) in time resolved fluorescence mode. Filter settings: TR 337 665 620.
The CRBN displacement TR-FRET experiment was carried out with various concentrations of the test compounds in order to measure Ki values.
The Ki values of competitive inhibitors were calculated using the equation based on the IC50 values of relationship between compound concentration and measured […], the Kd value of the Thalidomide-Red and CRBN/DDB1 complex, and the concentrations of the protein and the tracer in the displacement assay (as described by Cheng and Prusoff, Biochem Pharmacol 1973; 22:3099-3108).

[8] = Chemical stability in MV-4-11 medium; conditions: 37° C., concentration 10 μM
Method: Next, 500 μL of each solution was transferred to the 96-deep-well plate. Three replicates for each compound were performed. Plate was afterwards incubated at 37° C. with shaking (220 rpm). 50 μL of sample were withdrawn for the each timepoint (0, 1, 3, 6, 24, 48, 72, and 168 hours) and immediately mixed with 50 μL of acetonitrile. Next, samples were centrifuged at 3900 rpm, 10° C. for 20 minutes. 40 μL of supernatant was diluted with 120 μL of acetonitrile containing internal standard (IS) (10 μM), mixed, and analyzed by LC-MS/MS.
Thermo Fisher Scientific Altis+ coupled with a Vanquish system were used for UHPLC-MS/MS analysis. Analytes were separated on a Kinetex XB-C18 2.6 μm, 50×2.1 mm column, using gradient of water with 0.1% (v/v) formic acid (solvent A) and acetonitrile with 0.1% (v/v) formic acid (solvent B): 0.0 min 5% B, 0.5 min 5% B, 1.0 min 70% B, 3.0 min 95% B, 3.5 min 95% B, 3.7 min 5% B, 5 min 5% B. The mobile phase flow rate was set to 0.3 mL/min and the column was kept in 40° C. 1 μL of samples were injected. The MS/MS analysis was performed using SRM mode in positive ionization. Source parameters were set as follow: Ion Source Type H-ESI, Spray Voltage 3800 V, Sheath Gas 50 Arb, Aux Gas 10 Arb, Sweep Gas 1 Arb, Ion Transfer Tube Temp 325° C., Vaporizer Temp 350° C., Collision Gas Pressure 1.5 mTorr, Q1/Q3 Resolution (FWHM) 0.7. Three transitions were monitored for each analyte and for the internal standard:
Quantitation was based on the peak area ratio between the test compound and IS. The amount of compound remaining in the sample was calculated as follow:
The slope of logarithmic curve of percent remaining versus time has been used for calculation of half-life (t_half). First, the elimination constant (k) was calculated using the equation:
Next, half-life (t_half) was calculated using equation:

Hep3B, Kelly, KG-1 = test: Growth inhibition of cancer cell lines (summary statement); format: cell-based; conditions: hepatocellular carcinoma (Hep3B), neuroblastoma (Kelly), leukemia (KG-1)

T1 sequence (Q9UKS7 140-162 limits assumed): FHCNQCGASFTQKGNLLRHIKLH
T1 sequence (Q96SW2 whole entry): as the sequence (Q96SW2 whole entry) above
T1 sequence (Q16531 whole entry partner): as the sequence (Q16531 whole entry partner) above

activation at 1 µM [1] [%] | activation at 1 µM [2] [%] | EC50 [3] [nM] | activation at 1 µM [4] [%] | activation at 1 µM [5] [%] | activation at 1 µM [6] [%] | Ki [7] [nM] | % remaining at 24 hrs [8] | t_half [hours] [8] | Structure (SMILES) | inhibition of growth of cancer types (Hep3B, Kelly, KG-1)
< 10 | ≥ 50 | 316 to 3160 | 10 to 50 | 10 to 25 | < 10 | 500 to 1000 |  |  | Cc1nc2ccc(COC(=O)NC3CCCCC3)cc2cc1N1CCC(=O)NC1=O [Compound 60, (3-(2,4-dioxotetrahydropyrimidin-1(2H)-yl)-2-methylquinolin-6-yl)methyl cyclohexylcarbamate] | 
< 10 | < 10 | > 3160 | < 10 | < 10 | < 10 | > 1000 |  |  | Cc1ccc(NC(=O)OCc2cc3nc(C)c(C4CCC(=O)NC4=O)cc3cc2C)cc1Cl (centres unmarked) [Compound 68, (3-(2,6-dioxopiperidin-3-yl)-2,6-dimethylquinolin-7-yl)methyl (3-chloro-4-methylphenyl)carbamate] | 
 |  |  |  |  |  |  | d (5%≤d<10%) | C (5 hrs≤C<10 hrs) | Cc1nc2cccc(N)c2c(=O)n1C1CCC(=O)NC1=O (centres unmarked) [avadomide] | 
 |  |  |  |  |  |  | e (e<5%) | D (D<5 hrs) | Nc1cccc2c1CN(C1CCC(=O)NC1=O)C2=O (centres unmarked) [lenalidomide] | inactive
 |  |  |  |  |  |  | e (e<5%) | D (D<5 hrs) | Nc1cccc2c1C(=O)N(C1CCC(=O)NC1=O)C2=O (centres unmarked) [pomalidomide] | inactive

Structure (SMILES) | activation at 1 µM [1] [%] | activation at 1 µM [2] [%] | EC50 [3] [nM] | activation at 1 µM [4] [%] | activation at 1 µM [5] [%] | activation at 1 µM [6] [%] | Ki [7] [nM] | % remaining at 24 hrs [8] | t_half [hours] [8] | inhibition of growth of cancer types (Hep3B, Kelly, KG-1)
O=C1CCC(N2Cc3cc(CNC(=O)C(F)(F)c4ccc(Cl)cc4)ccc3C2=O)C(=O)N1 (centres unmarked) [eragidomide] |  |  |  |  |  |  |  |  | D (D<5 hrs) | 
